Test results as given in patent publication US12485179B2, “Cholecystokinin B receptor targeting for imaging and therapy” (Purdue Research Foundation, priority 2012, dated 2025).
pIC50, pKi: −log10 of the molar value.

Tests used:
[1] = test system: HEK 293 cells expressing the CCK2R; type: cell-based; conditions: for cell toxicity / potency: concentration range used (FIG. 16); for pIC50: dose dependent toxicity
Procedure: FIGS. 13A-C show the results of a study on the cytotoxicity of conjugate 23 in HEK CCK2R cells, shown at varying hours from introduction. CW-2478 denotes conjugate 23, with FIG. 13A showing values at 2 hours, FIG. 13B showing the values at 4 hours, and FIG. 13C showing the values at 9 hours.
This may partly explain the modest in vivo antitumor observed activity despite its impressive antagonistic effects.

[2] = target: T1, CCK2R (Homo sapiens, UniProt P32239); conditions: cited from earlier work
T1 sequence (P32239 1-447): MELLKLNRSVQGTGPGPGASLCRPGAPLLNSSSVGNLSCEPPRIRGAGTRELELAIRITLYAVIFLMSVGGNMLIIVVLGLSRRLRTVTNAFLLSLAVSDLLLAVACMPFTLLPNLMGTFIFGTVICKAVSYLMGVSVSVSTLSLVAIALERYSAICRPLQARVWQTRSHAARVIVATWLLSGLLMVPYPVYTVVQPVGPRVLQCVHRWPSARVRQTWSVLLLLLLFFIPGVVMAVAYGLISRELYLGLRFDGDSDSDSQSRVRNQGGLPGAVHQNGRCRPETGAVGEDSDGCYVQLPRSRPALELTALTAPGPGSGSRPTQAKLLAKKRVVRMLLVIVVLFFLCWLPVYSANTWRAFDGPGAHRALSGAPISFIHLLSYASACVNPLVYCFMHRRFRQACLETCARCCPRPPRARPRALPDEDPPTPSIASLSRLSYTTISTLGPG

[3] = test system: subcutaneous PANC-1 tumor; conditions: oral Z-360 along with gemcitabine, cited from earlier work
[4] = target: T1, CCK2R; assay: Binding of 99mTc conjugates to HEK-293 CCK2R cells (cell bound radioactivity); set-up: expressed in transfected cells; host or cells: HEK-293, G418-selected, from Dr. Mark Hellmich (University of Texas at Galveston)
Procedure: CRL-1, CRL-2, CRL-3 and CRL-4 were chelated to ^99mTc and tested for binding using two transfected cell lines of HEK-CCK2R (HEK-293 CCK2R) and HEK-CCK2R splice cell line (HEK CCK2i4svR), obtained from Dr. Mark Hellmich (University of Texas at Galveston). Cells were cultured in Dulbecco's modified Eagles (Gibco) supplemented with 10% Fetal Bovine Serum and G418 disulfate (SIGMA; 400 μg/ml), 1% penicillin/streptomycin at 37° C. in a humidified 95% air, 5% CO2 atmosphere.
Competition studies were performed using 100 fold excess of free Z-360 containing corresponding peptide linker and no chelating moiety. HEK 293 CCK2R and HEK CCK2i4svR were seeded onto 24 well plates and allowed to become confluent over 48-72 hours. Spent medium in each well was replaced with 0.5 ml fresh media containing 0.5% BSA and increasing concentrations of the test article. After incubating for 1 h at 37° C. cells were rinsed with incubation solution (2×1.0 ml) to remove any unbound radioactivity. Cells were then resuspended on 0.5 ml 0.25N NaOH and cell radioactivity was counted using a γ-counter. The dissociation constant (KD) was calculated using a plot of cell bound radioactivity versus the concentration of the radiotracer using Graphpad Prism 4 and assuming a non-cooperative single site binding equilibrium.

[5] = test system: HEK 293 cells expressing CCK2R tumors; assay: In vivo potency, subcutaneous HEK 293 CCK2R tumors; set-up: species or system nu/nu mice; conditions: for antitumor activity in comparison to untreated controls / tumor size / growth during the period of the study: 2 μmol/kg per injection
Procedure: Following the promising results obtained in vitro with the Z-360 targeted chemotherapeutics, antitumor effects of the compounds were investigated in vivo. HEK 293 cells expressing CCK2R (5.0×10^6 in 50% HC matrigel) were injected in the shoulder of 5-6 week old female nu/nu mice. Tumors were measured in two perpendicular directions every two to three days with vernier calipers, and their volumes calculated as 0.5×L×W^2 where L is the longest axis (in millimeters) and W is the axis perpendicular to L (in millimeters). Dosing solutions were prepared in saline and administered through either the lateral vein of the mice for Tubulysin B conjugates or intraperitoneally for desacetylvinblastine hydrazide conjugates. Dosing was initiated when the subcutaneous tumors reached ˜100 mm^3 in volume. Each mouse received 2 μmol/kg of the test conjugate in 100 microliters of saline per injection, three times a week for three weeks. Mouse weights were also recorded at each dosing as a measure of gross toxicity. Mice in the control groups received no treatment.

[6] = three times a week for three weeks

Compound | cell toxicity / potency [1] | pIC50 [1] | antitumor activity in comparison to untreated controls [5, 6] | tumor size / growth during the period of the study [5, 6] | further results
CC(C)(C)C(=O)CN1C(=O)[C@H](NC(=O)Nc2cccc(C(=O)O)c2)CN(C2CCCCC2)c2ccccc21 [Z-360, (R)-(−)-3-[3-(1-tert-butylcarbonylmethyl-2-oxo-5-cyclohexyl-1,3,4,5-tetrahydro-2H-1,5-benzodiazepin-3-yl)ureido]benzoic acid monohydrate] | no concentration dependent cell toxicity | – | – | – | selectivity ratio over CCK1R ([2]; CCK2R over CCK1R): 672; pKi [2]: 9.33; inhibition of subcutaneous PANC-1 tumor growth ([3]; compared with either agent alone): 27.1%; survival ([3]; compared with the vehicle): significantly increased survival
CC(C)(C)C(=O)CN1C(=O)[C@H](NC(=O)Nc2cccc(C(=O)N[C@@H](CCC(=O)O)C(=O)N[C@@H](CCC(=O)NC[C@H](O)[C@@H](O)[C@H](O)[C@H](O)CO)C(=O)N[C@@H](CCC(=O)O)C(=O)N[C@@H](CCC(=O)NC[C@H](O)[C@@H](O)[C@H](O)[C@H](O)CO)C(=O)NC[C@H](N)C(=O)N[C@@H](CC(=O)O)C(=O)N[C@@H](CS)C(=O)O)c2)CN(C2CCCCC2)c2ccccc21 [CRL-2 ^99mTc, metal not drawn] | – | – | – | – | specificity of binding (competition with free Z-360) ([4]; compared with CRL-1 99mTc): significantly higher specificity
CCCC(=O)OCN(C(=O)[C@@H](NC(=O)C1CCCCN1C)C(C)CC)[C@H](C[C@@H](OC(C)=O)c1nc(C(=O)N[C@@H](Cc2ccc(O)cc2)C[C@H](C)C(=O)NNC(=O)OCCSSC[C@H](NC(=O)[C@@H](CCC(=O)NC[C@H](O)[C@@H](O)[C@H](O)[C@H](O)CO)NC(=O)[C@@H](CCC(=O)O)NC(=O)[C@@H](CCC(=O)NC[C@H](O)[C@@H](O)[C@H](O)[C@H](O)CO)NC(=O)[C@@H](CCC(=O)O)NC(=O)CCCCCCCNC(=O)c2cccc(NC(=O)N[C@@H]3CN(C4CCCCC4)c4ccccc4N(CC(=O)C(C)(C)C)C3=O)c2)C(=O)O)cs1)C(C)C (some centres unmarked) [conjugate 22] | – | 7.92 | remarkable antitumor activity | reduction of tumor sizes | disappearance of tumors ([5]; 2 μmol/kg, three times a week for three weeks, lateral vein): ⅗
vinblastine [reference compound] | – | 8.10 | – | – | –
CC(C)(C)C(=O)CN1C(=O)[C@H](NC(=O)Nc2cccc(C(=O)NC[C@H](N)C(=O)N[C@@H](CC(=O)O)C(=O)N[C@@H](CS)C(=O)O)c2)CN(C2CCCCC2)c2ccccc21 [CRL-4 ^99mTc, metal not drawn] | – | – | – | – | Kd ([4]; 1 h at 37° C., 99mTc chelated, read-out: Kd (nM) HEK-293-CCK2R Cells): 270 nM
CC[C@]1(O)CC2CN(CCc3c([nH]c4ccccc34)[C@@](C(=O)OC)(c3cc4c(cc3OC)N(C)[C@H]3[C@@](O)(C(=O)NNC(=O)OCCSSC[C@H](NC(=O)[C@@H](CCC(=O)NC[C@H](O)[C@@H](O)[C@H](O)[C@H](O)CO)NC(=O)[C@@H](CCC(=O)O)NC(=O)[C@@H](CCC(=O)NC[C@H](O)[C@@H](O)[C@H](O)[C@H](O)CO)NC(=O)[C@@H](CCC(=O)O)NC(=O)CCCCCCCN)C(=O)O)[C@H](O)[C@]5(CC)C=CCN6CC[C@]43[C@@H]65)C2)C1 (some centres unmarked) [Unt-DAVBH] | little to no potency | – | – | grew at almost the same rate as untreated controls | –
CCCC(=O)OCN(C(=O)[C@@H](NC(=O)C1CCCCN1C)C(C)CC)[C@H](C[C@@H](OC(C)=O)c1nc(C(=O)N[C@@H](Cc2ccc(O)cc2)C[C@H](C)C(=O)NNC(=O)OCCSSC[C@H](NC(=O)[C@@H](CCC(=O)NC[C@H](O)[C@@H](O)[C@H](O)[C@H](O)CO)NC(=O)[C@@H](CCC(=O)O)NC(=O)[C@@H](CCC(=O)NC[C@H](O)[C@@H](O)[C@H](O)[C@H](O)CO)NC(=O)[C@@H](CCC(=O)O)NC(=O)CCCCCCCN)C(=O)O)cs1)C(C)C (some centres unmarked) [Unt-TubH] | little to no potency | – | modest tumor inhibition | – | –
CC[C@]1(O)C[C@@H]2CN(CCc3c([nH]c4ccccc34)[C@@](C(=O)OC)(c3cc4c(cc3OC)N(C)[C@H]3[C@@](O)(C(=O)NNC(=O)OCCSSC[C@H](NC(=O)[C@H](CCC(=O)NC[C@H](O)[C@@H](O)[C@H](O)[C@H](O)CO)NC(=O)[C@H](CCC(=O)O)NC(=O)[C@H](CCC(=O)NC[C@H](O)[C@@H](O)[C@H](O)[C@H](O)CO)NC(=O)[C@H](CCC(=O)O)NC(=O)CCCCCCCNC(=O)c5cccc(NC(=O)N[C@@H]6CN(C7CCCCC7)c7ccccc7N(CC(=O)C(C)(C)C)C6=O)c5)C(=O)O)[C@H](O)[C@]5(CC)C=CCN6CC[C@]43[C@@H]65)C2)C1 [conjugate 23] | – | – | remarkable antitumor activity | remain the same size | H & E staining of remaining tumor masses ([5]; conjugate 23 and conjugate 23+competition groups): contain very few malignant cells
tubulysin b [reference compound] | – | 8.89 | – | – | –
